# Publication PMC8966651, “PKPD Modeling of the Inoculum Effect of Acinetobacter baumannii on Polymyxin B in vivo” (Frontiers in Pharmacology, 2022)
# Where a name gives a salt, the structure may show the parent alone. Read-outs that look alike come from different tables or passages of the source. Bridge positions count the residues as written; N and C are the ends. Square brackets hold non-standard residues; d marks the D form. Peptide text beside a SMILES is read from it. * marks the point of attachment. X1 = CC[C@H](C)CCCCC(=O)*; Dab = NCC[C@H](N)C(=O)O
# Columns and labels:
# A. baumannii (CS01) = test: In vivo PKPD model of PMB bactericidal effect and inoculum effect; parameters: species or system Acinetobacter baumannii; conditions: for mean IK-HL (initial killing half-life): mean over PMB concentrations; for kslope (kill rate constant due to PMB): model predicted
# Text: A PKPD model was developed in two steps to quantify the exposure-effect relationship of PMB in infected mice. First, time courses of total and unbound PMB concentrations were modeled and then, PK parameters were fixed during development of the PD part of the PKPD model.
# The structural model for the bacterial population included one compartment representing drug-susceptible growing bacteria. A logistic function was used to model the self-limiting growth observed in vivo: dB/dt= knet×(1−B/Bmax)×B (1) Where, B (CFU/thigh) is the drug-susceptible bacterial population, knet (h^−1) is the apparent (net) growth rate constant and Bmax (CFU/thigh) the maximum bacterial count reached in the tissue. The residual error was additive on a log10 scale for bacterial counts (log10 CFU/thigh).
# Predicted unbound plasma concentrations were linked to the bacterial sub-model using a mathematical function to characterize PMB antimicrobial effect (kPMB) such as: dB/dt= knet×(1−B/Bmax)×B − kPMB×B (2) Where multiple functions (linear, power, basic Emax or a sigmoidal Emax function) for kPMB were tested.
# Empirical mathematical functions (i.e. linear, exponential and power) describing the relationship between kPMB and inoculum size were tested as a way to include the impact of inoculum size on PMB bactericidal activity.”
# Model selection was based on objective function value (OFV) and goodness of fit (GOF) plots. When two models were nested, a decrease in OFV of at least 3.84 (chi square 1df p = 0.05) was needed to select the most complex model. Visual predictive checks (VPCs) based on 1,000 simulations were drawn after stratification on the PMB dose and the starting inoculum to evaluate the predictive performance of the model and were taken into account for model selection. Data below the LOQ were taken into account during parameter estimation by applying Beal’s M3 method ([Beal, 2001]). Parameter estimation was performed using NONMEM software (ICON, Dublin, Ireland) version 7.4.2 using the LAPLACIAN algorithm. Uncertainty around population parameters was estimated using the sampling importance resampling (SIR) technique ([Dosne et al., 2016]).
# To evaluate the impact of outliers on parameter estimates and model-based inferences, a sensitivity analysis was performed. Briefly, model estimation was performed with the complete dataset and with a reduced dataset excluding outliers. Parameter estimates were compared and simulations of expected bacterial counts for all tested experimental conditions (i.e. all inocula and dosing regimens) were performed with the two parameter estimate sets.
# The time course of bacterial counts was adequately described by the model depicted on Figure 1. VPCs of the final model are shown on Figure 3 and GOF plots on Supplementary Figure S4. PMB bactericidal effect (kPMB) was best described by a power function: kPMB = kslope × Cuγ (5) Where kslope corresponds to the kill rate constant due to PMB (L/mg.h), Cu the unbound PMB concentration (mg/L) and γ , the power parameter for PMB effect.
# The inoculum effect was incorporated in the model as a decrease of kslope with increasing theoretical starting inoculum using a linear function: kslope=kslope,med +kinoc×(starting inoculum−6) (6) Where kslope,med is the kill rate constant for a theoretical starting inoculum of 6 log10 CFU/thigh corresponding to the median of the starting inoculum tested in the present study (5, 6 or 7 log10 CFU/thigh) and kinoc is the constant describing the inoculum effect on kslope.
# A. baumannii = conditions: ref Akrong et al., 2021, cited from earlier work; for increase of in vitro IK-HL: starting inoculum from 10^5 to 10^7 CFU/ml
# Text: High bacterial counts may alter antibiotherapy success due to an inoculum effect (IE) ([Chastre and Fagon, 2002]; [Koenig and Truwit, 2006]; [Kalanuria et al., 2014]), corresponding to a reduction of the antibiotic activity as bacterial count increases ([Harada et al., 2014]; [Lenhard and Bulman, 2019]). This phenomenon has been described in vitro for ß-lactam antibiotics used against ß-lactamases-producing bacteria such as Escherichia coli and Klebsiella pneumoniae ([Bedenić et al., 2001]; [Harada et al., 2014]; [Smith and Kirby, 2018]; [Lenhard and Bulman, 2019]). It has also been reported i ... || An innovative aspect of this study was the refinement of a PKPD model, based on the model developed after in vitro TK experiments conducted with A. baumannii and PMB ([Akrong et al., 2021]). […] The different growth behavior between in vitro and in vivo has been associated in literature ... || In both in vitro and in vivo PKPD models, a decrease in PMB killing effect was related to the baseline inoculum and was modeled either as a decrease of the in vivo PMB killing rate constant (kslope) or as an increase of the in vitro half-maximal effective concentration of PMB (EC50), making PMB IE difficult to compare between in vitro and in vivo. In vivo IK-HL were derived from Equation 5 for each starting inoculum and various PMB concentrations to better illustrate the consequences of IE on PMB activity (Table 3).
# [1] = SC, highest dose 32 mg/kg; ref Landersdorfer et al., 2018; cited from earlier work
# Description: These new study results can be compared with those previously obtained in relatively similar conditions, at least from PK standpoint ([Landersdorfer et al., 2018]). In both studies PMB was administered subcutaneously to neutropenic mice infected with K. pneumoniae ([Landersdorfer et al., 2018]) or A. baumannii, leading to saturable absorption rate. However although Landersdorfer et al. used a model with parallel linear and saturable absorption, an Emax model was sufficient to provide satisfactory fit of our data. Noticeably, while this nonlinear absorption was important to consider for PK and ...
structure (smiles),measurement,setting,value
"CC[C@H](C)CCCCC(=O)N[C@@H](CCN)C(=O)N[C@H](C(=O)N[C@@H](CCN)C(=O)N[C@H]1CCNC(=O)[C@H]([C@@H](C)O)NC(=O)[C@H](CCN)NC(=O)[C@H](CCN)NC(=O)[C@H](CC(C)C)NC(=O)[C@@H](Cc2ccccc2)NC(=O)[C@H](CCN)NC1=O)[C@@H](C)O [PMB, Polymyxin B sulfate] (X1-[Dab]T[Dab][Dab][Dab][dF]L[Dab][Dab]T; lactam 4-C)",mean IK-HL higher at 10^7 CFU/thigh compared with 10^5 CFU/thigh inoculum,A. baumannii (CS01); in vivo,48%
same,mean IK-HL (initial killing half-life),"A. baumannii (CS01); in vivo, inoculum 10^5 CFU/thigh",32.4 min
same,mean IK-HL (initial killing half-life),"A. baumannii (CS01); in vivo, inoculum 10^7 CFU/thigh",48 min
same,kslope (kill rate constant due to PMB),A. baumannii (CS01); starting inoculum 5 log10 CFU/thigh,19800 µL/min/mg
same,kslope (kill rate constant due to PMB),A. baumannii (CS01); starting inoculum 7 log10 CFU/thigh,13500 µL/min/mg
same,decrease in the in vivo PMB bactericidal effect,A. baumannii (CS01); starting inoculum increases from 10^5 to 10^7 CFU/thigh,32%
same,change of kslope,A. baumannii (CS01); starting inoculum increasing from 5 to 7 log10 CFU/thigh,−32%
same,Model derived initial killing half-life,"A. baumannii (CS01); unbound PMB 0.5 mg/L, inoculum 10^5 CFU/thigh",39 min
same,Model derived initial killing half-life,"A. baumannii (CS01); unbound PMB 0.5 mg/L, inoculum 10^6 CFU/thigh",47 min
same,Model derived initial killing half-life,"A. baumannii (CS01); unbound PMB 0.5 mg/L, inoculum 10^7 CFU/thigh",58 min
same,Model derived initial killing half-life,"A. baumannii (CS01); unbound PMB 1 mg/L, inoculum 10^5 CFU/thigh",35 min
same,Model derived initial killing half-life,"A. baumannii (CS01); unbound PMB 1 mg/L, inoculum 10^6 CFU/thigh",42 min
same,Model derived initial killing half-life,"A. baumannii (CS01); unbound PMB 1 mg/L, inoculum 10^7 CFU/thigh",52 min
same,Model derived initial killing half-life,"A. baumannii (CS01); unbound PMB 2 mg/L, inoculum 10^5 CFU/thigh",31 min
same,Model derived initial killing half-life,"A. baumannii (CS01); unbound PMB 2 mg/L, inoculum 10^6 CFU/thigh",37 min
same,Model derived initial killing half-life,"A. baumannii (CS01); unbound PMB 2 mg/L, inoculum 10^7 CFU/thigh",46 min
same,Model derived initial killing half-life,"A. baumannii (CS01); unbound PMB 3 mg/L, inoculum 10^5 CFU/thigh",29 min
same,Model derived initial killing half-life,"A. baumannii (CS01); unbound PMB 3 mg/L, inoculum 10^6 CFU/thigh",35 min
same,Model derived initial killing half-life,"A. baumannii (CS01); unbound PMB 3 mg/L, inoculum 10^7 CFU/thigh",43 min
same,Model derived initial killing half-life,"A. baumannii (CS01); unbound PMB 4 mg/L, inoculum 10^5 CFU/thigh",28 min
same,Model derived initial killing half-life,"A. baumannii (CS01); unbound PMB 4 mg/L, inoculum 10^6 CFU/thigh",33 min
same,Model derived initial killing half-life,"A. baumannii (CS01); unbound PMB 4 mg/L, inoculum 10^7 CFU/thigh",41 min
same,in vitro IK-HL,"A. baumannii; PMB 0.25 mg/L, starting inoculum 10^5 CFU/ml",10 min
same,in vitro IK-HL,"A. baumannii; PMB 0.25 mg/L, starting inoculum 10^7 CFU/ml",24 min
same,increase of in vitro IK-HL,A. baumannii; PMB 0.25 mg/L,140%
same,in vitro IK-HL,"A. baumannii; PMB 4 mg/L, starting inoculum 10^5 CFU/ml",5 min
same,in vitro IK-HL,"A. baumannii; PMB 4 mg/L, starting inoculum 10^7 CFU/ml",8 min
same,increase of in vitro IK-HL,A. baumannii; PMB 4 mg/L,60%
same,increase of the PMB concentration to reach 50% of maximal effect (EC50),"A. baumannii; initial inoculum increased from 10^5 to 10^8 CFU/ml, static time-kill",17 fold
same,peak concentrations at the highest dose,[1],~20 mg/L
